Paper PMC11952846, “The sterol-regulating human ARV1 binds cholesterol and phospholipids through its conserved ARV1 homology domain” (The Journal of Biological Chemistry, 2025)
Residue numbers refer to the chain shown, from its start.

Experiments:
6XHIS-N98 K84A = target: T1, 6XHIS-N98 K84A (Homo sapiens, UniProt Q9H2C2, K84A); experiment: HTRF phospholipid lipid-binding assay, mutant; parameters: key to Bio-PL, EC50, M ± S.D.: NC, no change; conditions: biotinylated lipid, NC = no change vs N98
T1 construct: made in house; host or cells: E. coli BL21
T1 sequence (Q9H2C2 1-98 K84A): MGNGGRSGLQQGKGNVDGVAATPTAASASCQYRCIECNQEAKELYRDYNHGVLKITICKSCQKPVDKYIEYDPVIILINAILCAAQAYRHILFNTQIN
Description: (§1) An HTRF assay was developed for 6XHIS-ARV1-N98-lipid binding. HTRF measures analyte interactions through fluorescence resonance energy transfer technology and time-resolved measurements ([53]). The interaction between two molecules can be quantified through binding each individual molecule involved with a fluorescent label and then analyzing the transfer of energy between the initial donor fluorophore and the secondary acceptor fluorophore. Following excitation of the first fluorophore, transfer of energy can only occur if the molecules bound with the fluorescent tags are within proximity to each other.
(§2) Assays were plated in 384-well flat bottom microplates (Greiner Bio, catalog #784075-25). Proteins were diluted using binding buffer (20 mM Hepes buffer, pH 7.2, containing 0.1% BSA, and 0.01% Tween20) to a stock concentration of 0.75 μM, and biotinylated phospholipids were dispensed, dried under nitrogen gas, and resuspended in binding buffer to a stock concentration of 50 μM. The lipid stock solution was diluted by 1:2 for a series of 12 serial dilutions. For the assay, in sequential order, 6 μl of binding buffer was loaded into the plate in triplicate for each dilution of phospholipid. To this, 2 μl of 0.75 μM 6XHIS-ARV1-N98 was added, followed by 2 μl of biotinylated phospholipid. Immediately following each addition loaded into the plate, the plate was centrifuged for 1 min at 1000 rpm to bring the contents to the bottom of the well. Next, detection antibodies were mixed with detection buffer (20 mM Hepes buffer, pH 8.5, containing 0.01% BSA and 200 mM KF). Antibodies were a MAb anti-6XHIS Europium kryptate-conjugated D1 fluorescent antibody (Cisbio, #61HISKLA) and Streptavidin-conjugated d2 fluorescent antibody (Cisbio, #610SADLA). For each 1000 μl of detection buffer, 5 μl of each antibody was added just prior to loading 10 μl into each well. The plate was again centrifuged for 1 min at 1000 rpm and stored in a sealed container overnight, in the dark. Plates were read on a PerkinElmer EnVision Xcite Multilabel plate reader.
(§3) Curves were logarithmically transformed and normalized to a common scale before being fit with a nonlinear regression of the agonist against the normalized response. This generated half maximal effective concentration values (EC50; M) that could then be compared between different lipids. In the context of our study, EC50 values were defined as a measure of protein sensitivity to binding to a particular lipid within a dose response curve. For phospholipid competition analysis, IC50; M values were determined using nonlinear regression of the inhibitor against normalized response.

6XHIS-N98 K67A = target: T2, 6XHIS-N98 K67A (Homo sapiens, UniProt Q9H2C2, K67A); experiment: HTRF phospholipid lipid-binding assay, mutant; parameters: key: NC, no change; conditions: biotinylated lipid; NC = no change vs N98
T2 construct: made in house; host or cells: E. coli BL21
T2 sequence (Q9H2C2 1-98 K67A): T1 sequence (Q9H2C2 1-98 K84A) with K67A, A84K
Description: as §1, §2, §3

6XHIS-ARV1-N98 C34/C37A = target: T3, 6XHIS-ARV1-N98 C34/C37A (Homo sapiens, UniProt Q9H2C2, C34A/C37A); experiment: Lipid overlay far western, site-directed mutant; assay type: binding; conditions: compared to the ARV1-N98 protein
T3 construct: Expressing amino-terminal 98 amino acids of ARV1; made in house; host or cells: E. coli BL21 (pET-28a(+))
T3 sequence (Q9H2C2 1-98 C34A/C37A): T1 sequence (Q9H2C2 1-98 K84A) with C34A, C37A, A84K
Outline: (§4)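 Binding of GST- or His-tagged proteins (0.5 μg/ml, 1 h, room temperature, 0.1% Triton X-100 present) to immobilized lipids is visualized by anti-tag immunodetection and chemiluminescence.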

6XHIS-ARV1-N98 K67A = target: T4, 6XHIS-ARV1-N98 K67A (Homo sapiens, UniProt Q9H2C2, K67A); experiment: Lipid overlay far western, site-directed mutant; assay type: binding; conditions: compared to the ARV1-N98 protein
T4 construct: Expressing amino-terminal 98 amino acids of ARV1; made in house; host or cells: E. coli BL21 (pET-28a(+))
T4 sequence (Q9H2C2 1-98 K67A): T1 sequence (Q9H2C2 1-98 K84A) with K67A, A84K
Outline: as §4

[1] = target: T5, GST-ARV1-N98 (N-terminal 98 amino acids, AHD) (Homo sapiens, UniProt Q9H2C2); experiment: Protein-lipid liposome binding assay (ultracentrifugation, Western blot); conditions: protein detected in final pellet
T5 construct: Expresses amino-terminal 98 amino acids of ARV1; made in house; host or cells: E. coli BL21 (pGEX-4T1)
T5 sequence (Q9H2C2 1-98): T1 sequence (Q9H2C2 1-98 K84A) with A84K
Protocol: Lyophilized lipids were reconstituted in chloroform at 10 mg/ml and stored in glass tubes with Teflon tops at −20 °C until use. One milliliter of 10 mg/ml stock was dried under a stream of nitrogen in a glass tube until a lipid cake/film was formed. The lipid cake was then rehydrated in BLT rehydration buffer (5 mM Tris/HCl, pH 7.4, containing 150 mM NaCl) to a concentration of 1 mg/ml. Lipid suspensions were subjected to three freeze/thaw cycles using a dry ice ethanol/[…] water bath to encapsulate the buffer and improve liposome formation. The suspension and lipid extruder were equilibrated to temperature for 10 min and liposomes were extruded using […] polycarbonate membranes (Avestin). Liposomes were made by mixing stock lipid PL (1 mg/ml) with PC (10 mg/ml).
Cholesterol composition liposomes were rehydrated with cholesterol rehydration buffer (10 mM Hepes, pH 7.4, containing 150 mM KCl).
Liposomes were serial diluted in floatation buffer (100 mM NaCl, 2 mM EDTA, pH 5.5) to a final concentration of 0.1 mg/ml. Nine hundred microliters of liposome solution was placed in clear ultracentrifuge tubes and mixed with 100 μl of 0.01 μg/ml of protein. The liposome/protein solution was incubated at room temperature for 1 h with occasional shaking. An initial 100 μl of liposome/protein solution (liposomes) was removed and the remaining 900 μl was centrifuged at 50,000g for 20 min at 4 °C. The pellet was resuspended in 800 μl of fresh floatation buffer, centrifuged as above, and 800 μl of supernatant was removed (wash 1). This was repeated a second time and again 800 μl of supernatant was removed (wash 2). The final pellet was resuspended in 100 μl of floatation buffer plus SDS treatment buffer (pellet). Thirty microliters of each fraction was run on a 15% SDS-PAGE gel and probed with an anti-GST monoclonal antibody at a 1:1500 dilution.

EC50 (6XHIS-N98 K84A; read-out: Bio-PL, EC50, M ± S.D.) [µM]	binding to PC:PL liposomes [1]	Compound	Bio-PL, EC50, M ± S.D. (6XHIS-N98 K84A)	Bio-PL, EC50, M ± S.D. (6XHIS-N98 K67A)	change of lipid-protein interaction (6XHIS-ARV1-N98 C34/C37A)	change of lipid-protein interaction (6XHIS-ARV1-N98 K67A)
–	–	phosphatidylcholine [PC]	NC	NC	–	–
–	–	CCCCCC(=O)O[C@H](COC(=O)CCCCCNC(=O)CCCC[C@@H]1SC[C@@H]2NC(=O)N[C@@H]21)COP(=O)(O)O[C@H]1[C@H](O)[C@@H](O)[C@H](OP(=O)(O)O)[C@@H](O)[C@H]1O [reference compound]	–	weakened	enhanced interactions	increased interactions
0.21	Neither	phosphatidylethanolamine [PE]	–	–	–	interacted weakly
–	not	CCCCCCCCCCCCCCCC(=O)OC[C@H](COP(=O)(O)O)OC(=O)CCCCCCCCCCCCCCC [PA, phosphatidic acid]	NC	NC	–	–
–	bound	CCCCC/C=C\C/C=C\CCCCCCCC(=O)OC[C@H](COP(=O)(O)OCC(O)COP(=O)(O)OC[C@@H](COC(=O)CCCCCCC/C=C\C/C=C\CCCCC)OC(=O)CCCCCCC/C=C\C/C=C\CCCCC)OC(=O)CCCCCCC/C=C\C/C=C\CCCCC (stereo partly drawn) [CL, cardiolipin]	–	–	–	–

Compound	EC50 (6XHIS-N98 K84A; read-out: Bio-PL, EC50, M ± S.D.) [µM]	binding to PC:PL liposomes [1]	Bio-PL, EC50, M ± S.D. (6XHIS-N98 K84A)	Bio-PL, EC50, M ± S.D. (6XHIS-N98 K67A)	change of lipid-protein interaction (6XHIS-ARV1-N98 C34/C37A)	change of lipid-protein interaction (6XHIS-ARV1-N98 K67A)
CCCCCCCC/C=C\CCCCCCCC(=O)OC[C@H](COP(=O)(O)OCC(O)CO)OC(=O)CCCCCCC/C=C\CCCCCCCC (stereo partly drawn) [PG, phosphatidylglycerol]	–	bound	reduced	reduced PG binding	weakened or eliminated	weakened
CCCCCCCCCCCCCCCCCC(=O)OC[C@H](COP(=O)(O)OC[C@H](N)C(=O)O)OC(=O)CCCCCCCCCCCCCCCCC [PS, phosphatidylserine]	–	bound	NC	NC	enhanced	–
